Measured values published in patent publication US7074961B2, “Antidepressants and their analogues as long-acting local anesthetics and analgesics” (The Brigham and Women's Hospital, Inc., priority 2000, dated 2006).
“And” between values parts separate entries of the source, which are not always exact repeats. Identical values can stand only once. Like-named read-outs stand apart in the source and are kept apart here.

Experiments:
rat sciatic nerve = experiment: Rat sciatic nerve blockade with neurobehavioral examination (proprioception, motor function, nocifensive reaction); type: in vivo; conditions: for Development of sciatic nerve blockade after injection: all rats
Excerpt: Male Sprague-Dawley rats were purchased from Taconic Farm, Inc., Germantown, N.Y., and kept in animal housing facilities with controlled humidity (20-30% relative humidity), room temperature, and a 12-h (6:00 AM-6:00 PM) light-dark cycle. Rats were handled before behavioral testing to familiarize them with the experiment and to minimize stress-induced analgesia. At the time of injections, animals weighed approximately 250-300 g. The experimenter was blinded to the drug/concentration used.
For sciatic nerve blockade, rats were lightly anesthetized by inhalation of sevoflurane and the landmarks (greater trochanter and ischial tuberosity) of the left hind limb were localized. […] The right hind limb was used as a control.
Neurobehavioral examination consisted of evaluation of motor function, proprioception, and nocifensive reaction immediately before inhalation of sevoflurane, at 2, 4, 6, 8, 10, 15, 20, 25, 30, 45, and 60 minutes after the injection, and then at 30-minute intervals until 750 minutes (12.5 hours). The following is a brief description of the neurobehavioral examination.
Motor function. Motor function was evaluated by measuring the “extensor postural thrust” of the hind limbs. The rat was held upright with the hind limb extended so that the body's weight was supported by the distal metatarsus and toes. The extensor thrust was measured as the gram force applied to a digital platform balance (Ohaus Lopro, Fisher Scientific, Florham Park, N.J.), the force that resists contact of the platform by the heel. The preinjection control value (range 130-165 gram) was considered 0% of the maximal possible effect (MPE). The reduction in this force, representing reduced extensor muscle contraction due to motor blockade, was calculated as a percentage of the control force. A force less than 20 grams (also referred to as weight of the “flaccid limb”) was considered 100% MPE.
Proprioception. Proprioception evaluation was based on resting posture and postural reactions (“tactile placing” and “hopping”). The functional deficit was graded as 3 (normal) or 0% MPE, 2 (slightly impaired), 1 (severely impaired), and 0 (complete) or 100% MPE. Keeping the rat in a normal resting posture with the toes flexed and the dorsi of the feet placed on the supporting surface, we evaluated tactile placing as the ability to reposition the toes.
Hopping response was evoked by lifting the front half of the animal off the ground and then lifting one hind limb at a time off the ground so that the animal moved laterally. This process normally evokes a prompt hopping with the weight-bearing limb in the direction of movement to avoid falling over. A predominantly motor impairment causes a prompt but weaker than normal response. Conversely with a predominantly proprioceptive blockade, delayed hopping is followed by greater lateral hops to avoid falling over or, in case of full blockade, no hopping at all.
Nocifensive reaction. Nocifensive reaction was evaluated by the withdrawal reflex and/or vocalization to pinch of a skin fold over the lateral metatarsus (cutaneous pain) and of the distal phalanx of the fifth toe (deep pain). Nocifensive reaction was graded 4 (normal or 0% MPE), 3 (25% MPE), 2 (50% MPE), 1 (75% MPE), and 0 (absent or 100% MPE).

Na+ channels = experiment: Whole-cell voltage clamp of Na+ currents in GH3 cells; type: cell-based, rat; conditions: for Use-dependent (additional) blockade of Na+ currents: 3 μM, high-frequency stimulation at 5 Hz, 60 pulses; for Na+ channels blocked in the inactivated state / Na+ channels blocked in the resting state: 10 μM; for Na+ channels blocked in the inactivated state: conditioning pulse of −60 mV; for Na+ channels blocked in the inactivated state / Na+ channels blocked in the resting state / IC50: GH3 cells; for Na+ channels blocked in the resting state: conditioning pulse of −150 mV; for Time to complete washout: all concentrations and all protocols
Method: The whole-cell configuration of the patch-clamp technique was used to record macroscopic Na^+ currents at room temperatures ranging from 21 to 23 degrees Celsius. Command voltages were controlled by pCLAMP software (Axons Instruments, Inc., Foster City, Calif.) and delivered by a List-EPC7 patch clamp amplifier (List-Electronic, Darmstadt/Eberstadt, Germany). After the establishment of whole-cell configuration, cells were dialyzed for 30 minutes before data were acquired. Data were filtered at 5 kHz, sampled at 50 kHz, collected, and stored with pCLAMP software. Leak and capacitance currents were subtracted by P/4 protocol, which was not applied in the use-dependent block of Na^+ currents. Pipette electrodes were filled with an internal solution containing (in mM) 100 NaF, 30 NaCl, 10 ethylene glycol-bis(β-aminoethylether)N,N,N′,N′-tetraacetic acid (EGTA), and 10 hydroxyethylpiperazineethane sulfonic acid (HEPES) titrated with CsOH to pH 7.2. The external solution consisted of (in mM) 85 choline Cl, 65 NaCl, 2 CaCl2, and 10 HEPES titrated with tetramethylammoniumhydroxide to pH 7.4. Rat clonal pituitary GH3 cells were purchased from the American Type Culture, Collection (Rockville, Md.). Cells were split twice a week and maintained in Dulbecco's modified Eagle's medium supplemented with penicillin/streptomycin (1%) and heat-inactivated fetal bovine serum (10%). The 35 mm-culture dishes in which the cells were grown were also used as a recording chamber. To determine the voltage-dependent blockade by amitriptyline or bupivacaine, a prepulse or conditioning pulse at various voltages and long enough to permit the drug-channel binding interaction to reach its steady-state level was applied (pulse protocol and representative tracings are shown in FIG. 4A). In order to determine the potency of amitriptyline and bupivacaine for the resting and inactivated states, dose-response curves were subsequently constructed at holding potentials of −150 mV and −60 mV, respectively (FIG. 5). Finally, additional blockade provoked by high-frequency stimulation (use dependent blockade) was investigated (pulse protocol and representative tracings are shown in FIG. 6A).

[1] = reportedly; cited from earlier work
[2] = single injection at 5 mM into the rat sciatic notch
[3] = holding potential −60 mV, read-out: 50% inhibitory concentration (IC50), inactivated state
[4] = holding potential −150 mV, read-out: 50% inhibitory concentration (IC50), resting state

With C[N+](C)(CCC=C1c2ccccc2CCc2ccccc21)CCc1ccccc1.[Br-] [N-phenyl-ethyl amitriptyline, N-phenyl-ethyl amitriptyline bromide] the “Extension of duration of complete nerve block over parent drug” value (rat sciatic nerve; 5 mM, 5 vs. 70 hrs) was “more than 10 fold”, the “Duration of complete sciatic nerve block” value (rat sciatic nerve; [2]) was 70 to 80 h and the “Full recovery of function” value (rat sciatic nerve; [2]) was 5 to 6 days. The “Inhibition of sodium channels in vitro” value (Na+ channels) was “strong tonic and use-dependent inhibition”.

For CN(C)CCC=C1c2ccccc2CCc2ccccc21 [amitriptyline], the “Duration of complete blockade, motor” value (rat sciatic nerve; 5 mM) was 168.7 ± 7.9 min, the “Duration of complete blockade, nociception” value (rat sciatic nerve; 5 mM) was 217.5 ± 19.4 min and the “Time to full recovery of function, motor function” value (shortened to “Time … motor function”) (rat sciatic nerve; 5 mM) was 270 ± 13.9 min. For the same compound, the “Time to full recovery of function, nociception” value (rat sciatic nerve; 5 mM) was 352.5 ± 12.4 min, the “Time to full recovery of function, proprioception” value (shortened to “Time … of function, proprioception”) (rat sciatic nerve; 5 mM) was 255.0 ± 11.3 min and the “Duration of complete blockade, motor” value (rat sciatic nerve; 10 mM) was 402.9 ± 27.7 min. The “Duration of complete blockade, nociception” value (rat sciatic nerve; 10 mM) was 454.8 ± 38.4 min and 454.3 ± 38.4 min, the “Duration of complete blockade, proprioception” value (rat sciatic nerve; 10 mM) was 467.1 ± 35.8 min and the “Time … motor function” value (rat sciatic nerve; 10 mM) was 582.6 ± 32.6 min. For the same compound, the “Time to full recovery of function, nociception” value (rat sciatic nerve; 10 mM) was 655.7 ± 27.3 min, the “Time … of function, proprioception” value (rat sciatic nerve; 10 mM) was 578.6 ± 39.7 min and the “Onset: time to full nociceptive, motor and proprioceptive blockade” value (from here on “Onset: time to full nociceptive”) (rat sciatic nerve; 0.2 ml 5 mM at sciatic nerve) was 30 min. For the same compound, the “Onset: time to full nociceptive” value (rat sciatic nerve; 0.2 ml 10 mM at sciatic nerve) was 6 min, the “Development of sciatic nerve blockade after injection” value (rat sciatic nerve) was “complete sciatic nerve blockade” and the “Use-dependent (additional) blockade of Na+ currents” value (Na+ channels) was about 50%. The “Na+ channels blocked in the inactivated state” value (Na+ channels) was over 95%, the “Na+ channels blocked in the resting state” value (Na+ channels) was about 15% and the “Time to complete washout” value (Na+ channels) was at most 5 min. The IC50 (Na+ channels; [3]) was 0.9 ± 0.1 µM, the IC50 (Na+ channels; [4]) was 141 ± 4.4 µM and the “Hill coefficient, inactivated state” value (Na+ channels; −60 mV) was 1.35±0.15. For the same compound, the “Potency relative to bupivacaine, inactivated state” value (Na+ channels; −60 mV) was about 10 ×, the “Hill coefficient, resting state” value (Na+ channels; −150 mV) was 1.56±0.03 and the “Potency relative to bupivacaine, resting state” value (Na+ channels; −150 mV) was about 15 ×.

For C[N+](C)(C)CC/C=C1\c2ccccc2COc2ccccc21 [N-methyl doxepin, N-methyl doxepin bromide], the “Duration for complete blockage of motor” value (rat sciatic nerve; 5 mM, pH 7.4) was 5.0 ± 0.5 h, the “Duration for complete blockage of nociception” value (rat sciatic nerve; 5 mM, pH 7.4) was 5.3 ± 0.3 h and the “Duration for complete blockage of proprioception” value (rat sciatic nerve; 5 mM, pH 7.4) was 5.0 ± 0.5 h. The “Time to reach full recovery of motor” value (rat sciatic nerve; 5 mM, pH 7.4) was 10.3 ± 0.2 h, the “Time to reach full recovery of nociception” value (rat sciatic nerve; 5 mM, pH 7.4) was 9.9 ± 0.2 h and the “Time to reach full recovery of proprioception” value (rat sciatic nerve; 5 mM, pH 7.4) was 9.5 ± 0.3 h. The “Development of sciatic nerve blockade after injection” value (rat sciatic nerve) was “complete sciatic nerve blockade”.

For CCCCN1CCCCC1C(=O)Nc1c(C)cccc1C (centres unmarked) [bupivacaine], the “Duration of complete blockade, motor” value (rat sciatic nerve; 15.4 mM) was 87.5 ± 14.7 min, the “Duration of complete blockade, nociception” value (rat sciatic nerve; 15.4 mM) was 90 ± 13.4 min and the “Duration of complete blockade, proprioception” value (rat sciatic nerve; 15.4 mM) was 90 ± 13.4 min. The “Time … motor function” value (rat sciatic nerve; 15.4 mM) was 160.0 ± 6.3 min, the “Time … of function, proprioception” value (rat sciatic nerve; 15.4 mM) was 155.0 ± 9.2 min and the “Onset: time to full nociceptive” value (rat sciatic nerve; 0.2 ml 15.4 mM at sciatic nerve) was 4 min. The “Use-dependent (additional) blockade of Na+ currents” value (Na+ channels) was about 14%, the “Na+ channels blocked in the inactivated state” value (Na+ channels) was over 70% and the “Na+ channels blocked in the resting state” value (Na+ channels) was “essentially none”. For the same compound, the “Time to complete washout” value (Na+ channels) was at most 3 min, the IC50 (Na+ channels; [3]) was 9.5 ± 0.6 µM and the IC50 (Na+ channels; [4]) was 9.5 ± 0.6 µM. For the same compound, the “Hill coefficient, inactivated state” value (Na+ channels; −60 mV) was 1.16±0.08, the “Hill coefficient, resting state” value (Na+ channels; −150 mV) was 1.12±0.04 and the “Duration of major nerve block” value [1] was “three to twelve”.
